Reference: US6921541B2, “Formulations and methods for providing prolonged local anesthesia” (Euro-Celtique S.A., priority 1995, dated 2005)
Where two headings read alike, the source gives them in different places.

Key:
[1] = immediate release vasoconstrictor; at best; cited from earlier work

Protocol for rat sciatic nerve: The duration of local anesthesia induced by the bupivacaine-loaded microspheres, prepared from PLGA 65:35, with and without the co-administration of an augmenting agent, is tested in a rat sciatic nerve model for localized local anesthesia. […] The latency test determines the time, in seconds, before a rat withdraws its hindpaw from a hotplate set to a safe but uncomfortable temperature (56° C.).
Maximum sciatic nerve sensory blockade is defined as having a latency of about 12 seconds or higher.
In this example, a large number of pharmaceutical agents were tested for activity in augmenting the duration of local anesthetic activity. Bupivacaine-containing microspheres at about 75% loading, by weight, were injected perineurally into rat sciatic nerve at a dose of 150mg/kg (weight microspheres/weight rat) to dose of approximately 50 mg/nerve. For the injections, needle placement adjacent to the target nerve was optimized by intermittent electrical e stimulation of the target nerve (via the injection needle) with low amplitude current to produce limb flexion. For the injections, the microspheres were suspended in a carrier vehicle suitable for injection. While any pharmaceutically acceptable carrier vehicle is acceptable, for these experiments the carrier vehicle was 1% sodium carboxymethylcellulose and 1% Tween 80 in water.
Compounds to be tested were co-injected with bupivacaine containing microspheres (i.e., mixed as additives into the carrier vehicle) in a range of concentrations. Results are expressed as percent increase in duration relative to non-augmented durations that were obtained in the same animal model.

SMILES	Duration Anesthesia As Percent of Control (rat sciatic nerve; 0.1 % additive conc., Placebo (no bupivacaine))	Duration Anesthesia As Percent of Control (toxicity noted) (rat sciatic nerve; 10 % additive conc. in carrier vehicle, LAB 150 mg/kg)	Duration Anesthesia As Percent of Control (rat sciatic nerve; 10 % additive conc., no LAB)	prolongation of local anesthetic activity [1]
COc1cc2c(c(OC)c1OC)-c1ccc(OC)c(=O)cc1[C@@H](NC(C)=O)CC2 [Colchicine]	0% of Control	toxic	0% of Control	
CNC[C@H](O)c1ccc(O)c(O)c1 [epinephrine]				about 1 hour
